The text below walks through data of patent EP1761537B1, “PYRROLO[2,1-C][1,4]BENZODIAZEPINE-NAPTHALIMIDE […] THROUGH […] AND PROCESS FOR PREPARATION THEREOF” (Council of Scientific and Industrial Research, priority 2004, dated 2006).

In one experiment the test system is A-549. Nature of the experiment: In vitro cytotoxicity against human cancer cell lines (sulforhodamine B). It is filed as cell-based. Conditions: A549, A-549 (lung), 48 hours, read-out: percentage growth inhibition; for inhibition at 100 µM: 10^-4 mol/L. As to the method:
(§1) In vitro cytotoxicity against human cancer cell lines: The human cancer cell lines procured from National Cancer Institute, Frederick, U.S.A or National Center for Cell Science; Pune, India. were used in present study. Cells were grown in tissue culture flasks in complete growth medium (RPMI-1640 medium with 2 mM glutamine, 100 µg/ml streptomycin, pH 7.4, sterilized by filtration and supplemented with 10% fetal calf serum and 100 units/ml penicillin before use) at 37°C in an atmosphere of 5% CO2 and 90% relative humidity in a carbon dioxide incubator. The cells at subconfluent stage were harvested from the flask by treatment with trypsin (0.5% in PBS containing 0.02% EDTA) for determination of cytotoxicity. Cells with viability of more than 98% as determined by trypan blue exclusion were used for assay. The cell suspension of the required cell density were prepared in complete growth medium with gentamycin (50µg/ml) for determination of cytotoxicity.
(§2) A stock solutions of (2 X 10^-2 M) of test material were prepared in DMSO . The stock solutions were serially diluted with complete growth medium containing 50µg/ml of gentamycin to obtain working test solutions of required concentrations.
(§3) In vitro cytotoxicity against human cancer cell lines was determined (Monks, A., Scudiero, D., Skehan, P, Shoemaker R, Paull, K., Vistica, D., Hose, C., Langley, J., Cronise, P., Vaigro-Wolff, A., Gray-Goodrich, M.; Campbell,H., Mayo, J and Boyd M. J. Natl. Cancer Inst.,1991,83, 757-766) using 96-well tissue culture plates. The 100 µl of cell suspension was added to each well of the 96-well tissue culture plate. The cells were incubated for 24 hours. Test materials in complete growth medium (100µl) were added after 24 hours incubation to the wells containing cell suspension. The plates were further incubated for 48 hours (at 37°C in an atmosphere of 5% and 90% relative humidity in a carbon dioxide incubator) after addition of test material and then the cell growth was stopped by gently layering trichloroacetic acid (TCA, 50µl, 50%) on top of the medium in all the wells. The plates were incubated at 4°C for one hour to fix the cells attached to the bottom of the wells. The liquid of all the wells was gently pipetted out and discarded. The plates were washed five times with distilled water to remove TCA, growth medium low molecular weight metabolites, serum proteins etc and air-dried. Cell growth was measured by staining with sulforhodamine B dye (Skehan et al., 1990). The adsorbed dye was dissolved in Tris-Buffer ([…], 0.01M, pH 10.4) and plates were gently stirred for 5 minutes on a mechanical stirrer. The optical density was recorded on ELISA reader at 540 nm.
(§4) The cell growth was calculated by subtracting mean OD value of respective blank from the mean OD value of experimental set. Percent growth in presence of test material was calculated considering the growth in absence of any test material as 100% and in turn percent growth inhibition in presence of test material will be calculated.

The test system of the next experiment is HOP-62. The experiment is described as above. It is filed as cell-based. The note with it: HOP-62 (lung), 48 hours, read-out: percentage growth inhibition; for inhibition at 10 µM: 10^-5 mol/L; for inhibition at 1 µM: 10^-6 mol/L. As to the method: as §1, §2, §3, §4
Another experiment concerns HT-29. The experiment is described as above. It is filed as cell-based. Conditions: HT-29 (colon), 48 hours, read-out: percentage growth inhibition; for inhibition at 100 µM: 10^-4 mol/L; for inhibition at 10 µM: 10^-5 mol/L; for inhibition at 1 µM: 10^-6 mol/L. As to the method:
as §1, §2, §3, §4

The test system of a further experiment is SiHa. The description is as above. It is filed as cell-based. Conditions: SiHa (cervix), 48 hours, read-out: percentage growth inhibition; for inhibition at 100 µM: 10^-4 mol/L; for inhibition at 10 µM: 10^-5 mol/L; for inhibition at 1 µM: 10^-6 mol/L. As to the method:
as §1, §2, §3, §4

For the next experiment, the system named is CT-DNA. The experiment is described as follows: DNA Thermal Denaturation Studies. The note with it: 1:5 molar ratio [PBD]/[DNA], CT-DNA 100 µM, ligand 20 µM, 10 mM sodium phosphate + 1 mM EDTA, pH 7.00. It is filed as binding. As to the method:
For CT-DNA alone at pH 7.00 ± 0.01, Tm = 69.8 °C ± 0.01 (mean value from 10 separate determinations), all ΔTm values are ± 0.1 - 0.2 °C. For a 1:5 molar ratio of [PBD]/[DNA], where CT-DNA concentration = 100 µM and ligand concentration = 20 µM in aqueous sodium phosphate buffer [10 mM sodium phosphate + 1 mM EDTA, pH 7.00 ± 0.01].

The test system of a further experiment is HCT-15. Nature of the experiment: In vitro cytotoxicity against human cancer cell lines (sulforhodamine B). Conditions: HCT-15 (colon), 48 hours, read-out: percentage growth inhibition; for inhibition at 10 µM: 10^-5 mol/L; for inhibition at 1 µM: 10^-6 mol/L. It is filed as cell-based. As to the method: as §1, §2, §3, §4

What is called inhibition is the relative decrease from the control value, in per cent. For `COc1cc2c(cc1OCCCN1CCN(CCCN3C(=O)c4cccc5cccc(c45)C3=O)CC1)N=C[C@@H]1CCCN1C2=O` [VIIId, 7-Methoxy-8-{3-[4-[3-(1,3-dioxo-benz[de]isoquinolin-2-yl)propyl]piperazin-1-yl]propyl}-oxy-(11aS)-1,2,3,11a tetrahydro-5H-pyrrolo [2,1-c][1,4]benzodiazepin-5-one], the inhibition at 100 µM was 95% in the experiment with A-549, 78% in the experiment with HOP-62 (10^-4 mol/L), 95% in the experiment with HT-29 and 85% with SiHa. Further, the figures for the inhibition at 10 µM with A-549 (10^-5 mol/L), in the experiment on HT-29 and with SiHa were 30%, 62% and 65%, respectively. Moreover, the inhibition at 1 µM worked out at 51% in the experiment on A-549 (10^-6 mol/L), 63% with HT-29 and 31% in the experiment on SiHa. In addition, the entries for the “Induced […]Tm °C after incubation at 37 °C” value in the experiment with CT-DNA (0 h incubation at 37 °C) and with CT-DNA (18 h incubation at 37 °C) were 13.1 °C and 14.3 °C, respectively.

For `COc1cc2c(cc1OCCCN1CCN(CCN3C(=O)c4cccc5cccc(c45)C3=O)CC1)N=C[C@@H]1CCCN1C2=O` [VIIIb, 7-Methoxy-8-{3-[4-[2-(1,3-dioxo-benz[de]isoquinolin-2-yl)ethyl]piperazin-1-yl]propyl}-oxy-(11aS)-1,2,3,11a tetrahydro-5H-pyrrolo [2,1-c][1,4]benzodiazepin-5-one], the inhibition at 100 µM in the experiment on A-549 and in the experiment on HT-29 was 88% throughout. Besides, the inhibition at 10 µM in the experiment on HCT-15 was 59%; in the experiment on HOP-62, 86%; in the experiment with HT-29, 85%; with SiHa it was 44%. Moreover, the inhibition at 1 µM is 58% in the experiment on HCT-15, 72% with HOP-62, 91% with HT-29 and 54% in the experiment with SiHa. Also, the “Induced […]Tm °C after incubation at 37 °C” value in the experiment on CT-DNA (0 h incubation at 37 °C) was determined as 25.8 °C; with CT-DNA (18 h incubation at 37 °C) it was 26.7 °C.

As for `COc1cc2c(cc1OCCCCN1CCN(CCN3C(=O)c4cccc5cccc(c45)C3=O)CC1)N=C[C@@H]1CCCN1C2=O` [VIIIc, 7-Methoxy-8-{4-[4-[2-(1,3-dioxo-benz[de]isoquinolin-2-yl)ethyl]piperazin-1-yl]butyl}-oxy-(11aS)-1,2,3,11a tetrahydro-5H-pyrrolo [2,1-c][1,4]benzodiazepin-5-one], the inhibition at 100 µM with A-549 was found to be 95%; in the experiment on HT-29 it was 94%; in the experiment with SiHa it was 56%. In addition, the inhibition at 10 µM amounted to 69% in the experiment with HCT-15, 93% in the experiment with HOP-62, 86% with HT-29 and 39% in the experiment on SiHa. The inhibition at 1 µM in the experiment with HCT-15 came out at 60%; in the experiment on HOP-62, 86%; with HT-29 it was 80%. In addition, the “Induced […]Tm °C after incubation at 37 °C” value in the experiment with CT-DNA (0 h incubation at 37 °C) turned out to be 23.4 °C; with CT-DNA (18 h incubation at 37 °C) it was 24.2 °C.

In the case of `COc1cc2c(cc1OCCN1CCN(CCN3C(=O)c4cccc5cccc(c45)C3=O)CC1)N=C[C@@H]1CCCN1C2=O` [VIIIa, 7-Methoxy-8-{2-[4-[2-(1,3-dioxo-benz[de]isoquinolin-2-yl)ethyl]piperazin-1=yl]ethyl}-oxy-(11aS)-1,2,3,11a tetrahydro-5H-pyrrolo [2,1-c][1,4]benzodiazepin-5-one], the entries for the “Induced […]Tm °C after incubation at 37 °C” value with CT-DNA (0 h incubation at 37 °C) and in the experiment on CT-DNA (18 h incubation at 37 °C) were 21.9 °C and 22.7 °C, respectively.

`COc1cc2c(cc1O)N=CC1CCCN1C2=O` (centres unmarked) [DC-81, reference compound]: the “Induced […]Tm °C after incubation at 37 °C” value with CT-DNA (0 h incubation at 37 °C) turned out to be 0.3 °C; in the experiment with CT-DNA (18 h incubation at 37 °C), 0.7 °C.

Turning to `COc1cc2c(cc1OCCCCN1CCN(CCCCN3C(=O)c4cccc5cccc(c45)C3=O)CC1)N=C[C@@H]1CCCN1C2=O` [VIIIe, 7-Methoxy-8-{4-[4-[4-(1,3-dioxo-benz[de]isoquinolin-2-yl)butyl]piperazin-1-yl]butyl}-oxy-(11aS)-1,2,3,11a tetrahydro-5H-pyrrolo [2,1-c][1,4]benzodiazepin-5-one], the inhibition at 100 µM was 93% in the experiment on A-549, 92% in the experiment on HT-29 and 42% with SiHa. Moreover, the inhibition at 10 µM was determined as 62% in the experiment with HCT-15, 93% in the experiment on HOP-62, 78% in the experiment on HT-29 and 40% with SiHa. For the same compound, the inhibition at 1 µM in the experiment on HCT-15 amounted to 59%; in the experiment on HOP-62, 80%; with HT-29 it was 67%; with SiHa, 44%. For the same compound, the “Induced […]Tm °C after incubation at 37 °C” value with CT-DNA (0 h incubation at 37 °C) turned out to be 20.9 °C; with CT-DNA (18 h incubation at 37 °C) it was 21.7 °C.
